# From patent US20130303509A1, “NAMPT INHIBITORS” (AbbVie Inc., priority 2012, published 2013)
# System: PC3 cells
# Assay: NAMPT Cell Proliferation Assay
# Format: cell-based
# Conditions: Homo sapiens, PC-3, 120 h, 5 days incubation, cell viability by Cell Titer Glo
# Outline: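 Five-day CellTiter-Glo viability readout in PC3 cells grown in RPMI/10% heat-inactivated FBS. Compounds added after overnight attachment as a 10-fold dilution series, […]. Percent inhibition fitted to sigmoidal dose-response to derive IC50.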
row,Compound,IC50 [nM]
1,"CCOCCC(=O)N1CCC(c2ccc(NC(=O)[C@H]3CCN(c4cccnn4)C3)cc2)CC1 [Example 694, (3S)-N-{4-[1-(3-ethoxypropanoyl)piperidin-4-yl]phenyl}-1-(pyridazin-3-yl)pyrrolidine-3-carboxamide]",71.6
2,"O=C(Nc1ccc(C2CCN(C(=O)c3ccccc3Cl)CC2)cc1)C1CN(c2ccnnc2)C1 [Example 525, N-{4-[1-(2-chlorobenzoyl)piperidin-4-yl]phenyl}-1-(pyridazin-4-yl)azetidine-3-carboxamide]",0.93
3,"O=C(Nc1ccc(O[C@@H]2CCN(C(=O)C3CCOCC3)C2)cc1)C1CN(c2cccnn2)C1 [Example 487, 1-(pyridazin-3-yl)-N-(4-{[(3R)-1-(tetrahydro-2H-pyran-4-ylcarbonyl)pyrrolidin-3-yl]oxy}phenyl)azetidine-3-carboxamide]",72
4,"O=C(Nc1ccc(OC2CCN(C(=O)[C@@H]3CCCO3)CC2)cc1)C1CN(c2cccnc2)C1 [Example 33, 1-(pyridin-3-yl)-N-[4-({1-[(2S)-tetrahydrofuran-2-ylcarbonyl]piperidin-4-yl}oxy)phenyl]azetidine-3-carboxamide]",3.66
5,"CC(C)(O)C(=O)N1CCC(c2ccc(NC(=O)C3CN(c4cnccc4C#N)C3)cc2)CC1 [Example 97, 1-(4-cyanopyridin-3-yl)-N-{4-[1-(2-hydroxy-2-methylpropanoyl)piperidin-4-yl]phenyl}azetidine-3-carboxamide]",922
6,"O=C(Nc1ccc(S(=O)(=O)C2CCN(C(=O)c3cccc(F)c3F)CC2)cc1)C1CN(c2cccnn2)C1 [Example 589, N-(4-{[1-(2,3-difluorobenzoyl)piperidin-4-yl]sulfonyl}phenyl)-1-(pyridazin-3-yl)azetidine-3-carboxamide]",97.9
7,"O=C(Nc1ccc(C2CCN(C(=O)CC3CCOCC3)CC2)cc1)[C@H]1CCN(c2cccnn2)C1 [Example 312, (3S)-1-(pyridazin-3-yl)-N-{4-[1-(tetrahydro-2H-pyran-4-ylacetyl)piperidin-4-yl]phenyl}pyrrolidine-3-carboxamide]",21.7
8,"O=C(Nc1ccc(OC2CCN(C(=O)c3nccs3)CC2)cc1)C1CN(c2cccnc2)C1 [Example 68, 1-(pyridin-3-yl)-N-(4-{[1-(1,3-thiazol-2-ylcarbonyl)piperidin-4-yl]oxy}phenyl)azetidine-3-carboxamide]",3.54
9,"Cc1ccc(N2CC(C(=O)Nc3ccc(C4CCN(C(=O)C(C)(C)C)CC4)cc3)C2)nn1 [Example 852, N-{4-[1-(2,2-dimethylpropanoyl)piperidin-4-yl]phenyl}-1-(6-methylpyridazin-3-yl)azetidine-3-carboxamide]",12.4
10,"O=C(Nc1ccc(S(=O)(=O)C2CCN(C(=O)Cc3cccc(F)c3)CC2)cc1)C1CN(c2cccnn2)C1 [Example 582, N-[4-({1-[(3-fluorophenyl)acetyl]piperidin-4-yl}sulfonyl)phenyl]-1-(pyridazin-3-yl)azetidine-3-carboxamide]",627
11,"CCCc1nc(-c2ccc(NC(=O)C3CN(c4cccnn4)C3)cc2)no1 [Example 784, N-[4-(5-propyl-1,2,4-oxadiazol-3-yl)phenyl]-1-(pyridazin-3-yl)azetidine-3-carboxamide]",16
12,"O=C(Nc1ccc(OC2CCN(C(=O)c3ccsc3)CC2)cc1)C1CN(c2cccnn2)C1 [Example 223, 1-(pyridazin-3-yl)-N-(4-{[1-(thiophen-3-ylcarbonyl)piperidin-4-yl]oxy}phenyl)azetidine-3-carboxamide]",5.5
13,"CC(C)CCN1CCC(c2ccc(NC(=O)C3CN(c4cccnc4)C3)cc2)CC1 [Example 93, N-{4-[1-(3-methylbutyl)piperidin-4-yl]phenyl}-1-(pyridin-3-yl)azetidine-3-carboxamide]",58.4
14,"Cc1ncccc1N1CC(C(=O)Nc2ccc(C3CCN(C(=O)CCN4CCCCC4)CC3)cc2)C1 [Example 190, 1-(2-methylpyridin-3-yl)-N-(4-{1-[3-(piperidin-1-yl)propanoyl]piperidin-4-yl}phenyl)azetidine-3-carboxamide]",694
15,"CCC(C)CN1CCC(Oc2ccc(NC(=O)C3CN(c4cccnc4)C3)cc2)CC1 (stereo not shown) [Example 80, N-(4-{[1-(2-methylbutyl)piperidin-4-yl]oxy}phenyl)-1-(pyridin-3-yl)azetidine-3-carboxamide]",25.5
16,"CC1CC1C(=O)N1CCC(Oc2ccc(NC(=O)C3CN(c4cccnc4)C3)cc2)CC1 (stereo not shown) [Example 35, N-[4-({1-[(2-methylcyclopropyl)carbonyl]piperidin-4-yl}oxy)phenyl]-1-(pyridin-3-yl)azetidine-3-carboxamide]",6.92
17,"O=C(Nc1ccc(C2CCN(C(=O)c3ccccc3F)CC2)cc1)C1CN(c2ccnnc2)C1 [Example 551, N-{4-[1-(2-fluorobenzoyl)piperidin-4-yl]phenyl}-1-(pyridazin-4-yl)azetidine-3-carboxamide]",0.48

# More lines, in order of falling IC50, values ahead:
row,IC50 [nM],Compound
1,914,"N#Cc1cncc(N2CC(C(=O)Nc3ccc(C4CCN(C(=O)c5ccccc5)CC4)cc3)C2)c1 [Example 740, N-[4-(1-benzoylpiperidin-4-yl)phenyl]-1-(5-cyanopyridin-3-yl)azetidine-3-carboxamide]"
2,634,"O=C(Nc1ccc(OC2CCN(C(=O)Cc3ccc(C(F)(F)F)cc3)CC2)cc1)C1CN(c2ccnnc2)C1 [Example 273, 1-(pyridazin-4-yl)-N-{4-[(1-{[4-(trifluoromethyl)phenyl]acetyl}piperidin-4-yl)oxy]phenyl}azetidine-3-carboxamide]"
3,269,"O=C(Nc1ccc(S(=O)(=O)C2CCN(C(=O)CCC(F)(F)F)CC2)cc1)C1CN(c2cccnn2)C1 [Example 575, 1-(pyridazin-3-yl)-N-(4-{[1-(4,4,4-trifluorobutanoyl)piperidin-4-yl]sulfonyl}phenyl)azetidine-3-carboxamide]"
4,100,"CC(C)C(=O)N1CC(Oc2ccc(NC(=O)C3CN(c4ccnnc4)C3)cc2)C1 [Example 264, N-(4-{[1-(2-methylpropanoyl)azetidin-3-yl]oxy}phenyl)-1-(pyridazin-4-yl)azetidine-3-carboxamide]"
5,94.8,"O=C(N[C@H]1CCN(c2cccnn2)C1)c1ccc(C2CCN(C(=O)c3cccc(F)c3)CC2)s1 [Example 754, 5-[1-(3-fluorobenzoyl)piperidin-4-yl]-N-[(3S)-1-(pyridazin-3-yl)pyrrolidin-3-yl]thiophene-2-carboxamide]"
6,88.7,"Cc1ccccc1C(=O)N1CCC(S(=O)(=O)c2ccc(NC(=O)C3CN(c4cccnn4)C3)cc2)CC1 [Example 578, N-(4-{[1-(2-methylbenzoyl)piperidin-4-yl]sulfonyl}phenyl)-1-(pyridazin-3-yl)azetidine-3-carboxamide]"
7,63.2,"O=C(Nc1ccc(O[C@@H]2CCN(C(=O)Cc3cccc(F)c3)C2)cc1)C1CN(c2ccnnc2)C1 [Example 452, N-[4-({(3R)-1-[(3-fluorophenyl)acetyl]pyrrolidin-3-yl}oxy)phenyl]-1-(pyridazin-4-yl)azetidine-3-carboxamide]"
8,23.4,"O=C(Nc1ccc(O[C@@H]2CCN(C(=O)Cc3ccc(C(F)(F)F)cc3)C2)cc1)C1CN(c2cccnn2)C1 [Example 497, 1-(pyridazin-3-yl)-N-(4-{[(3R)-1-{[4-(trifluoromethyl)phenyl]acetyl}pyrrolidin-3-yl]oxy}phenyl)azetidine-3-carboxamide]"
9,21.1,"O=C(Nc1ccc(OC2CCN(C(=O)CC(F)(F)F)CC2)cc1)C1CN(c2cccnc2)C1 [Example 55, 1-(pyridin-3-yl)-N-(4-{[1-(3,3,3-trifluoropropanoyl)piperidin-4-yl]oxy}phenyl)azetidine-3-carboxamide]"
10,9.08,"CC1(Cn2cc(-c3ccc(NC(=O)[C@H]4CCN(c5cccnn5)C4)cc3)cn2)CCOCC1 [Example 756, (3S)—N-(4-{1-[(4-methyltetrahydro-2H-pyran-4-yl)methyl]-1H-pyrazol-4-yl}phenyl)-1-(pyridazin-3-yl)pyrrolidine-3-carboxamide]"
11,8.75,"O=C(Nc1ccc(OC2CCN(C(=O)c3cccc(F)c3)CC2)cc1)C1CN(c2cccnn2)C1 [Example 231, N-(4-{[1-(3-fluorobenzoyl)piperidin-4-yl]oxy}phenyl)-1-(pyridazin-3-yl)azetidine-3-carboxamide]"
12,8.53,"CC(C)CCC(=O)N1CCC(c2ccc(NC(=O)[C@H]3CCN(c4cccnn4)C3)cc2)CC1 [Example 671, (3S)-N-{4-[1-(4-methylpentanoyl)piperidin-4-yl]phenyl}-1-(pyridazin-3-yl)pyrrolidine-3-carboxamide]"
13,7.06,"O=C(Nc1ccc(O[C@@H]2CCN(C(=O)c3cccc(C(F)(F)F)c3)C2)cc1)C1CN(c2cccnn2)C1 [Example 495, 1-(pyridazin-3-yl)-N-[4-({(3R)-1-[3-(trifluoromethyl)benzoyl]pyrrolidin-3-yl}oxy)phenyl]azetidine-3-carboxamide]"
14,6.07,"O=C(Nc1ccc(O[C@@H]2CCN(C(=O)Cc3ccccc3F)C2)cc1)C1CN(c2cccnn2)C1 [Example 501, N-[4-({(3R)-1-[(2-fluorophenyl)acetyl]pyrrolidin-3-yl}oxy)phenyl]-1-(pyridazin-3-yl)azetidine-3-carboxamide]"
15,1.88,"O=C(Nc1ccc(C2CCN(C(=O)c3ccccc3Cl)CC2)cc1)[C@H]1CCN(c2cccnn2)C1 [Example 669, (3S)-N-{4-[1-(2-chlorobenzoyl)piperidin-4-yl]phenyl}-1-(pyridazin-3-yl)pyrrolidine-3-carboxamide]"
16,1.19,"O=C(Nc1ccc(O[C@@H]2CCN(C(=O)c3ccc(F)cc3F)C2)cc1)C1CN(c2cccnn2)C1 [Example 509, N-(4-{[(3R)-1-(2,4-difluorobenzoyl)pyrrolidin-3-yl]oxy}phenyl)-1-(pyridazin-3-yl)azetidine-3-carboxamide]"
17,0.64,"CC(C)CCC(=O)N1CCC(c2ccc(NC(=O)C3CN(c4cccnc4)C3)cc2)CC1 [Example 116, N-{4-[1-(4-methylpentanoyl)piperidin-4-yl]phenyl}-1-(pyridin-3-yl)azetidine-3-carboxamide]"
